Data on one molecule can be found in patent publication US8470766B2, “Protein kinase C therapy for the treatment of acute lung injury” (The Children's Hospital of Philadelphia, priority 2006, dated 2013).

For the test, the system named is neutrophils. Nature of the test: TNF suppression of neutrophil apoptosis, kinase inhibitor pretreatment (initial studies). The format is cell-based. As to conditions: pretreatment with kinase inhibitor. From the text:
δ-PKC has been identified as an important regulator of cytokine mediated anti-apoptotic and pro-inflammatory signaling in adherent neutrophils (Kilpatrick, L. E., et al. (2002) Am J Physiol Cell Physiol 283, C48-57; Kilpatrick, L. E., et al. (2004) Am J Physiol Cell Physiol 287, C633-42; Kilpatrick, L. E., et al. (2006) J Leukoc Biol. 80:1512-1521; Kilpatrick, L. E., et al. (2000) Am J Physiol Cell Physiol 279, C2011-8). Neutrophils undergo spontaneous apoptosis which can be suppressed in vitro by culturing cells in the presence of cytokines such as TNF (Kilpatrick, L. E., et al. (2002) Am J Physiol Cell Physiol 283, C48-57; Kilpatrick, L. E., et al. (2006) J Leukoc Biol. 80:1512-1521). […] Activation of caspases is one of the earliest markers of apoptosis occurring upstream of DNA fragmentation and PS externalization. Caspase 3 plays a critical role in spontaneous neutrophil apoptosis (Kilpatrick, L. E., et al. (2002) Am J Physiol Cell Physiol 283, C48-57; Daigle, I., Simon, H. U. (2001) Int Arch Allergy Immunol 126, 147-56; Scheel-Toellner, D., et al. (2004) Blood 104, 2557-64). […] However, recent reports have raised issues about the specificity of rottlerin as a δ-PKC inhibitor (Davies, S. P., et al. (2000) Biochem J 351, 95-105). To establish a role specifically for δ-PKC in the TNF-mediated anti-apoptotic signaling, a more specific inhibitor is required. […]

On to `CC(=O)c1c(O)c(C)c(O)c(Cc2c(O)c3c(c(C(=O)/C=C/c4ccccc4)c2O)OC(C)(C)C=C3)c1O` [rottlerin], for which the “suppression of neutrophil apoptosis by TNF” value was “inhibited”.
